Data published in patent publication US20260216344A1, “ALC1 Inhibitors and Synergy with PARPi” (Eisbach Bio GmbH, priority 2020, published 2026).
Entries after “also recorded” stand apart in the source; their conditions may differ.

Test system: PARP2
Assay: live-cell PARP-2 trapping assay (GFP-PARP2 at laser micro-irradiation sites)
Format: cell-based, human
Details: U2OS cells transfected with GFP-PARP2; veliparib 10 μM, talazoparib 100 nM; images 1 and 15 minutes after irradiation
Method: U2OS cells were seeded onto 4-well Nunc Lab-Tek chambers (Thermo Fisher Scientific) in normal DMEM. Cells were cultured over night at 37° C. and transfected with a GFP-tagged PARP2 plasmid using Lipofectamine. 24 h after transfection, the cells were imaged using the Zeiss AxioObserver Z1 confocal spinning-disk microscope equipped with a sCMOS ORCA Flash 4.0 camera (Hamamatsu). Live-cell imaging experiments were performed with C-Apo 63× water immersion objective lens. During this time, the cells were maintained in Leibovitz's L-15 media (Gibco), supplemented with 10% FBS, at 37° C. in the absence of CO2. […] DNA damage was induced along a line of 88 pixels that is exposed for 400 msec with 20% laser power of a 355 nm laser operated through a single-point scanning head (UGA-42 firefly, Rapp OptoElectronics).
The accumulation of fluorophore-tagged proteins at laser micro-irradiation sites was followed for 15-30 minutes. […] The accumulation of fluorophore-tagged proteins at micro-irradiation sites was quantified using a custom-made macro in Fiji/ImageJ. The damage region of interest was selected, the mean fluorescent intensity of the nucleus was determined, and the background signal was subtracted. The recruitment was calculated via the following formula: (damage region (t)−background signal (t))/(nucleus intensity (t)−background (t))

| Structure (SMILES) | recruitment / retention of GFP-PARP2 at laser micro-irradiation damage sites |
| --- | --- |
| Cn1ncnc1[C@H]1c2n[nH]c(=O)c3cc(F)cc(c23)N[C@@H]1c1ccc(F)cc1 [talazoparib] | enhanced retention of GFP-tagged PARP2 at induced DNA lesions; also recorded: enhanced retention of PARP2 at induced damage sites |
| C[C@]1(c2nc3c(C(N)=O)cccc3[nH]2)CCCN1 [veliparib] | overall less PARP2 recruitment to the DNA lesions; also recorded: less recruitment of PARP2 to the damage site |
